From US6197746A, “Method of using secretin for treating autism” (priority 1999, dated 2001)
Entries after “also recorded” stand apart in the source; their conditions may differ.

Columns and labels:
symptoms of autism [1] = test: Symptoms and behaviour of a child with symptoms of autism after secretin infusion (Example 1, Table I); type: in vivo, human
Procedure: The present invention will be better understood from the following examples which are given by way of illustration and not by way of limitation. The patient, the same in both examples, is a child with symptoms of autism.
(§1) When the patient was […], the secretin was administered by way of an infusion as part of an upper gastrointestinal endoscopy. The secretin was used in this diagnostic procedure at the request of the patient's parents, one of which is an inventor of the present invention. The secretin used in this procedure is known as Secretin-Ferring available from Ferring Laboratories, Inc., Suffern, N.Y. (See Appendix A). The secretin was dissolved in a […] solution of sodium chloride and administered in a dosage of 2 clinical units (CU) per kilogram (kg) body weight by intravenous injection over one minute. (I.E. 30 IU IV for approximately 15 kilograms of body weight.)
(§2) The diagnostic tests performed on the patient during this procedure also indicated gastric inflammation. […] The following Table I summarizes the improvements observed in the patient within 3 weeks after the infusion of secretin.

brain perfusion = test: SPECT scan of the brain after secretin infusion (Example 1); type: in vivo, human
Procedure: Further, the patient's secretin cells prior to receiving treatment, measured at a level of 9, are far below the normal limit in the range of 20-70.
(§3) Biomedical changes were also measured in the patient.

pancreas = test: Pancreatic juice release after intravenous secretin during upper gastrointestinal endoscopy (Example 1); type: in vivo, human; settings: immediately after 2 CU/kg i.v. over one minute; usual rate 1-2 ml/min
Procedure: as §1, §2

symptoms of autism [2] = test: Daily transdermal secretin with DMSO in a child with symptoms of autism (Example 2); type: in vivo, human
Procedure: At the time of this treatment, the patient was […]. Secretin was administered transdermally using pharmaceutical grade dimethyl sulfoxide (DMSO) (generally 99.9% pure) available from Clinic Service Co., Box 2512, Hemet Calif. 92543. The secretin (Secretin-Ferring) was administered daily in a dosage of about 75 CU over a five day period (i.e., about 15 CU daily) For each treatment, about 4 drops of DMSO were placed onto the skin of the patient, about 15 CU of the crystalline secretin was placed onto the DMSO, and the composition was rubbed into the skin.

abnormal opioid peptides = settings: after the secretin infusion; autistic children that responded to casein free and gluten free diet; cited from earlier work
[3] = system: serotonin levels; rubella titers; test: Blood tests after secretin infusion (Example 1); type: in vivo, human
Procedure: as §3

[4] = within weeks after the treatment

Substance: secretin
- rate of the patient's progress (symptoms of autism [1]; at about 5 weeks after first infusion): appeared to decrease
- results of second and third infusions (symptoms of autism [1]; second about 9 months after first, third about three months after second): achieved the same results
- limited diet preferences (symptoms of autism [1]; within 3 weeks after infusion): No Change
- water consumption (symptoms of autism [1]; within 3 weeks after infusion): approximately 50 cups per day
- bowel movements (symptoms of autism [1]; within 3 weeks after infusion, before: abnormal): Normal bowel movements
- excessive water consumption (symptoms of autism [1]; within 3 weeks after infusion, before: approximately 50 cups per day): no change
- potty training (symptoms of autism [1]; within 3 weeks after infusion, before: diapers only): Completely potty trained
- imitation of commands (symptoms of autism [1]; within 3 weeks after infusion, before: did not imitate): Will imitate almost any multi-step
- "spinning" episodes (symptoms of autism [1]; within 3 weeks after infusion, before: infrequent (1-2 times/week)): No spinning episodes
- eye contact (symptoms of autism [1]; within 3 weeks after infusion, before: minimal eye contact): 75 % of the time
- connections made between language and objects (symptoms of autism [1]; within 3 weeks after infusion, before: no apparent connections): Many connections made between new
- flash cards (symptoms of autism [1]; within 3 weeks after infusion, before: no flash cards): 40-50 flash cards
- focus on requested tasks (symptoms of autism [1]; within 3 weeks after infusion, before: no focus): Will sit and watch carefully
- interest in drawing (symptoms of autism [1]; within 3 weeks after infusion, before: no interest): Wants to draw constantly
- response to request for gestures (symptoms of autism [1]; within 3 weeks after infusion, before: no response): Responds to all kinds of things
- sentences (symptoms of autism [1]; within 3 weeks after infusion, before: no sentences): Short sentences
- words (symptoms of autism [1]; within 3 weeks after infusion, before: two words): 100's of words
- sleeping problems (symptoms of autism [1]; within 3 weeks after infusion, before: up numerous times each night): Has slept through almost every night
- interaction with videos (symptoms of autism [1]; within 3 weeks after infusion, before: watch videos): gets "involved" interactively
- chronic abnormal bowel movements (symptoms of autism [1]; within days after the administration, no change of diet): became normal
- eye contact (symptoms of autism [1]; [4]): able to make normal eye contact
- language (symptoms of autism [1]; [4]): language appeared for the first time in two years
- other behavioral and developmental problems (symptoms of autism [1]; [4]): improved remarkably
- perfusion of the right posterior parietal and right temporal lobes (blood flow in the brain) (brain perfusion): improved; also recorded: increased
- amount of pancreatic juice being released (pancreas): approximately 10 ml/min
- autistic behavioral symptoms when the daily dose is stopped (symptoms of autism [2]; transdermal daily dose stopped): autistic behavioral symptoms return
- language (symptoms of autism [2]; transdermal daily, within a period of about 6 months): progressed to spontaneous and conversational language
- abnormal opioid peptides (abnormal opioid peptides): disappeared
- measles, mumps and rubella antibodies ([3]; after the secretin administration in Example 1): reduction
- rubella titers ([3]; after the treatment, dropped from 5.8): 2.3
- serotonin levels ([3]; blood, after the treatment): rise and increase
